Experimental data from patent US6734184B1, “Arylpiperazines and their use as metalloproteinase inhibiting agents (MMP)” (AstraZeneca AB, priority 1998, dated 2004).

O=CN(O)C(CCc1cccnc1)CS(=O)(=O)N1CCC(Oc2ccc(Cl)cn2)CC1 (stereo not drawn) [Example 14, N-{1-[({4-[(5-Chloropyridin-2-yl)oxy]piperidino}sulfonyl)methyl]-3-pyridin-3-ylpropyl}-N-hydroxyformamide]
melting point: 130 to 140 °C

O=CN(O)C(CCc1ccccc1)CS(=O)(=O)N1CCN(c2cc(Cl)ncn2)CC1 (stereo not drawn) [N-[1-({[4-(6-chloropyrimidin-4-yl)piperazino]sulphonyl}methyl)-3-phenylpropyl]-N-hydroxyformamide]
melting point: 155 to 157 °C

O=CN(O)C(COCc1ccccc1)CS(=O)(=O)N1CCN(c2cc(Cl)ncn2)CC1 (stereo not drawn) [N-[2-(benyloxy)-1-({[4(6-chloropyrimidin-4-yl)piperazino]sulphonyl}methyl)ethyl]-N-hydroxyformamide]
melting point: 118 to 120 °C
